# Source: ChEMBL document CHEMBL1135240, “Benzene fused monocyclic enediynyl amides: synthesis, reactivity and DNA-cleavage activity in comparison to the corresponding sulfonamides” (Bioorg Med Chem Lett, 2002)
# Columns and labels:
# [1] = The compound was evaluated for rate constant at 70 deg. C; assay type: ADME
# [2] = The compound was evaluated for half life at 70 deg. C; assay type: ADME
Compound,Rate constant [1] [h⁻¹],half-life [2] [h]
O=[N+]([O-])c1ccc(S(=O)(=O)N2CC#Cc3ccccc3C#CCC2)cc1,0.0143,49
O=C(c1ccc([N+](=O)[O-])cc1)N1CC#Cc2ccccc2C#CCC1,0.0051,136
O=C(c1ccccc1)N1CC#Cc2ccccc2C#CCC1,0.0037,188
O=[N+]([O-])c1ccc(S(=O)(=O)N2CC#Cc3ccccc3C#CCC2)c([N+](=O)[O-])c1,0.0244,28
